Test results as given in patent US8445510B2, “Fused bicyclic kinase inhibitors” (OSI Pharmaceuticals, LLC, priority 2011, dated 2013).

Columns and labels:
[1] = test system: Karpas-299 cells; experiment: Karpas-299 cell proliferation assay (CellTiter-Glo); type: cell-based; settings: Homo sapiens, 72 h; Karpas-299 cell line (NPM-ALK); 3 days incubation; at least duplicate experiments; read-out: Prolif. IC50
[2] = test system: MKN45 cells; experiment: MKN45 cell proliferation assay (CellTiter-Glo); type: cell-based; settings: Homo sapiens, MKN-45, 72 h; MKN45 cell line; 3 days incubation; at least duplicate experiments; read-out: Prolif. IC50

Question: How did the IC50 [1] turn out when `COc1ccc(F)c(Cl)c1[C@@H](C)c1c[nH]c2ncc(-c3cn([C@H]4CC[C@H](C(=O)N(C)C)CC4)nc3C)cc12` [Example 23, trans-4-(4-{3-[(1S)-1-(2-chloro-3-fluoro-6-methoxyphenyl)ethyl]-1H-pyrrolo[2,3-b]pyridin-5-yl}-3-methyl-1H-pyrazol-1-yl)-N,N-dimethylcyclohexanecarboxamide] was run?
Answer: Its IC50 is no more than 0.05 µM.

Question: What about the IC50 [2] of the same compound?
Answer: The IC50 was no more than 0.05 µM.

Question: `CNC(=O)[C@H]1CC[C@H](n2nc(C)c(-c3cnc4[nH]cc([C@H](C)c5c(OC)ccc(F)c5Cl)c4c3)c2C)CC1` [Example 24, trans-4-(4-{3-[(1S)-1-(2-Chloro-3-fluoro-6-methoxyphenyl)ethyl]-1H-pyrrolo[2,3-b]pyridin-5-yl}-3,5-dimethyl-1H-pyrazol-1-yl)-N-methylcyclohexanecarboxamide] was tested. Which IC50 [1] did it give?
Answer: Its IC50 is no more than 0.05 µM.

Question: And the IC50 [2]?
Answer: Its IC50 is no more than 0.05 µM.

Question: What does the source list for `COc1ccc(F)c(Cl)c1[C@@H](C)c1c[nH]c2ncc(-c3cn([C@H]4CC[C@H](O)CC4)nc3C)cc12` [Example 28, trans-4-(4-{3-[(1S)-1-(2-Chloro-3-fluoro-6-methoxyphenyl)ethyl]-1H-pyrrolo[2,3-b]pyridin-5-yl}-3-methyl-1H-pyrazol-1-yl)cyclohexanol]?
Answer: IC50 [1]: ≤ 0.05 µM; IC50 [2]: ≤ 0.05 µM
